Measured values published in patent US20060160811A1, “Aryl-condensed 3-arylpridine compounds and use thereof for controlling pathogenic fungi” (priority 2003, published 2006).

System: Leptosphaeria nodorum
Test: Activity against leaf blotch on wheat caused by Leptosphaeria nodorum, protective application
Format: in vivo
Details: protective spray, wheat cultivar Kanzler, inoculated next day, visual rating after 8 days, untreated control 80%
Procedure: The active compounds were prepared as a stock solution with 0.25% by weight of active compound in acetone or DMSO (dimethyl sulfoxide). 1% by weight of the emulsifier Uniperol® EL (wetting agent having emulsifying and dispersing action based on ethoxylated alkylphenols) was added to this solution, and the solution was diluted with water to the desired concentration.
Activity against leaf blotch on wheat caused by Leptosphaeria nodorum, protective application.
Pots with wheat plants of the cultivar “Kanzler” were sprayed to runoff point with an aqueous suspension having the concentration of active compound stated below. The next day, the pots were inoculated with an aqueous spore suspension of Leptosphaeria nodorum. The plants were then placed in a chamber at 20° C. and maximum atmospheric humidity. After 8 days, the leaf blotch on the untreated but infected control plants had developed to such an extent that the degree of infection could be determined visually in %.

Structure (SMILES) | Leaf infection [%] at 250 ppm [%]
CC1CCN(c2nc3ncncc3c(Cl)c2-c2c(F)cc(F)cc2F)CC1 | 3
Fc1cc(F)c(-c2c(Cl)nc3ncncc3c2Cl)c(F)c1 [drawing 26] | 3
Oc1nc2nccnc2c(O)c1-c1c(F)cc(F)cc1F | 10

System: not given
Test: not given
Details: not given

melting point | Structure (SMILES)
315 °C | Cc1ccc2c(O)c(-c3c(F)cc(F)cc3F)c(C)nc2n1 [Example 5, 2,7-Dimethyl-3-(2,4,6-trifluorophenyl)-[1,8]naphthyridin-4-ol]
348 °C (dec.) | Oc1nc2ncncc2c(O)c1-c1c(F)cc(F)cc1F [Example 1, 6-(2,4,6-Trifluorophenyl)pyrido[2,3-d]pyrimidine-5,7-diol]
146 °C | Fc1cc(F)c(-c2c(OCc3ccccc3)nc3ncncc3c2Cl)c(F)c1 (hydrate or solvate) [Example 3, 7-Benzyloxy-5-chloro-6-(2,4,6-trifluorophenyl)pyrido[2,3-d]pyrimidine]
169 °C | Fc1cc(F)c(-c2c(Cl)nc3ncncc3c2Cl)c(F)c1 [Example 2, 5,7-Dichloro-6-(2,4,6-trifluorophenyl)pyrido[2,3-d]pyrimidine]
268 °C | CC1CCN(c2c(-c3c(F)cc(F)cc3F)c(O)nc3ncncc23)CC1 [Example 8, 5-(4-Methylpiperidin-1-yl)-6-(2,4,6-trifluorophenyl)pyrido[2,3-d]pyrimidin-7-ol]
